Experiment [1] concerns the target T1, Zinc finger protein mex-5 (Caenorhabditis elegans, UniProt Q9XUB2).
T1 sequence (Q9XUB2 whole entry): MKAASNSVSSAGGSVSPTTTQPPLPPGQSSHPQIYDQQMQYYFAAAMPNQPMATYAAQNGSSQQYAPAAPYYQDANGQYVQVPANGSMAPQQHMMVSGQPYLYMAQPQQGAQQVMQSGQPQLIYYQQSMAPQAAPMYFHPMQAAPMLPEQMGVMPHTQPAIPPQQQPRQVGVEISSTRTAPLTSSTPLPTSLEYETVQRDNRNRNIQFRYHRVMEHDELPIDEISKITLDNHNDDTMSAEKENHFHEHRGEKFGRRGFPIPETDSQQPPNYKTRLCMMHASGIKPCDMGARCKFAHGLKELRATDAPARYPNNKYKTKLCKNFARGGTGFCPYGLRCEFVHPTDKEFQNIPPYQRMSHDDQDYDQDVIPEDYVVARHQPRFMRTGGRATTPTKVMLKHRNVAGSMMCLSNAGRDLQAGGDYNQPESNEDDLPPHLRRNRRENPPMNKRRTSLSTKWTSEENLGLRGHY
Nature of the experiment: potency of MEX-5 RNA-binding blockers – biochemical, C. elegans, fluorescence polarization, dose response (AID 1960). In general terms: In fluorescence polarisation assays a small probe gives low polarisation when free and higher when bound to something large.

Experiment [2] has as its target Luciferin 4-monooxygenase (Photinus pyralis, UniProt P08659). Nature of the experiment: inhibition of purified Photinus pyralis luciferase – biochemical, luminescence, dose response (AID 1891).
Experiment [3] in a line: Luminescence Cell-Based Dose Confirmation HTS to Identify Inhibitors of Platelet Dense Granule Release. [Related pubchem assays: 1663 (Primary HTS), 1678 (Summary of Project)]. In kind it is functional.
Experiment [4] has as its target T2, RNA-binding protein pos-1 (Caenorhabditis elegans, UniProt G5EF15).
T2 sequence (G5EF15 whole entry): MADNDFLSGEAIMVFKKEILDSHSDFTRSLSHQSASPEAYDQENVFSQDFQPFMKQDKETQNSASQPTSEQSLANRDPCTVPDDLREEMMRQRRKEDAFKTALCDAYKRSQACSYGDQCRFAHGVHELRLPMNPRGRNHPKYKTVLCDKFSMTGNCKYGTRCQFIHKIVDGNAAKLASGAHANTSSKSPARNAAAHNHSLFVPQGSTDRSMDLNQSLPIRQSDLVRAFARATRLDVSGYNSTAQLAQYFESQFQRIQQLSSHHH
Nature of the experiment: disruptors of C. elegans POS-1 RNA interaction – biochemical, fluorescence polarization, dose response (AID 1964).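 Note: purified POS-1 fused to maltose binding protein made in E. coli; potency of compounds blocking POS-1 binding to fluorescent RNA.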

Experiment [5] in a line: NIH3T3 cell viability loss – ATP luminescence, mouse fibroblasts, counter-screen, dose response (AID 2010).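 Note: cells exposed to compound for about 90 hours before reading.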 Type of experiment: functional, cell-based.
A short description of experiment [6]: Trypanosoma cruzi growth suppression in host cells – NIH3T3 host cells, beta-gal luminescence, confirmation (AID 2044).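 Note: intracellular parasites grown in NIH/3T3 mouse fibroblasts as host cells; luminescent beta-galactosidase reporter signal from transgenic T. cruzi replicating inside host cells; inhibitors lower the luminescence signal.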 Type of experiment: functional, cell-based.
In another experiment the target is T3, Protein RecA (Mycobacterium tuberculosis, UniProt P9WHJ3).
T3 sequence (P9WHJ3 whole entry): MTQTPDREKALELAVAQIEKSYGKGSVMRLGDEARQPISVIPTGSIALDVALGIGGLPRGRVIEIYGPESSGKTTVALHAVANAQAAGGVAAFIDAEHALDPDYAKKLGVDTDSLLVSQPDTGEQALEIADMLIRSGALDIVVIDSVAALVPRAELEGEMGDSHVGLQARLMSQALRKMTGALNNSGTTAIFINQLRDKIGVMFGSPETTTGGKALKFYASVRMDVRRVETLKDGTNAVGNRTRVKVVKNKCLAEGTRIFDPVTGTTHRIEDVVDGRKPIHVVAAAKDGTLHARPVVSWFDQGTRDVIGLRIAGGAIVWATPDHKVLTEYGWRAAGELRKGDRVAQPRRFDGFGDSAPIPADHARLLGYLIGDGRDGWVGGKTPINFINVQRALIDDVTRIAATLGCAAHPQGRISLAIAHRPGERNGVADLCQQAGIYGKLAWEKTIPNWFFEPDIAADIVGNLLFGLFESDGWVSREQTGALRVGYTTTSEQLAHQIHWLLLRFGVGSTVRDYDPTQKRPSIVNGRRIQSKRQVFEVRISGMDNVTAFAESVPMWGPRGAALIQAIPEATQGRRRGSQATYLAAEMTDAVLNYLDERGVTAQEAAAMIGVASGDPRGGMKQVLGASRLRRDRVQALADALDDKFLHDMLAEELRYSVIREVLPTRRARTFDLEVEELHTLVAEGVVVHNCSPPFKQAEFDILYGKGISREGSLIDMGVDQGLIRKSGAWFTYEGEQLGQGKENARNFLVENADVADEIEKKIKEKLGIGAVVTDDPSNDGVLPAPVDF
Nature of the experiment: Fluorescence Cell-Free Homogeneous Dose Retest to Identify Inhibitors of RecA-Intein Splicing Activity. [Related pubchem assays (depositor defined):AID2097, AID2223, AID489010, AID492950]. In kind it is functional.

Experiment [7] deals with T4, Replicative DNA helicase DnaB (Mycobacterium tuberculosis, UniProt P9WMR3).
T4 sequence (P9WMR3 whole entry): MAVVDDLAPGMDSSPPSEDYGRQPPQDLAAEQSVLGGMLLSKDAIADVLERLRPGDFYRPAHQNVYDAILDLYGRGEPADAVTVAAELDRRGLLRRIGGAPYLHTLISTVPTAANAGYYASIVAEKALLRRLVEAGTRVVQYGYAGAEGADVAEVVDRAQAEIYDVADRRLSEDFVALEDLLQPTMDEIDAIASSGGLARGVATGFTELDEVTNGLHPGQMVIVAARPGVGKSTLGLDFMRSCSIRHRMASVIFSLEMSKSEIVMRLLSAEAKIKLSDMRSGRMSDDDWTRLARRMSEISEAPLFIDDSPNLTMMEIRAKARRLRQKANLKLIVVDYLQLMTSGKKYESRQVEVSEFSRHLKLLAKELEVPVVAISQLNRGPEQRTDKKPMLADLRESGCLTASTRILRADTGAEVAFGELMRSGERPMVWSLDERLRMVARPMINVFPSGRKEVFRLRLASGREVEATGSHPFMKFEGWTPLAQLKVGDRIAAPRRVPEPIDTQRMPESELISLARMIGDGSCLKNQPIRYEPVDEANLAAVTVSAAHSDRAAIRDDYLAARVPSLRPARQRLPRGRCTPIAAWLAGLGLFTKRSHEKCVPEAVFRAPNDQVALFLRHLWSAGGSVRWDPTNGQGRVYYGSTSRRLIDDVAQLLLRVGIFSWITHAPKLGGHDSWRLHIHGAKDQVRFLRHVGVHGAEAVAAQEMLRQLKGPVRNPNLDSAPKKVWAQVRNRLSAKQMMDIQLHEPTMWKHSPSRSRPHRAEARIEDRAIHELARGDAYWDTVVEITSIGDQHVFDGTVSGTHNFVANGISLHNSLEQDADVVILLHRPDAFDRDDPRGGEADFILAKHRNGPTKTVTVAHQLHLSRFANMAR
Kind of experiment: DnaB intein splicing inhibitors, dose response, biochemical, cell-free fluorescence (AID 449749). Type of experiment: functional.

The next experiment deals with T5, Aminopeptidase N (Plasmodium falciparum FcB1/Columbia, UniProt O96935).
T5 sequence (O96935 whole entry): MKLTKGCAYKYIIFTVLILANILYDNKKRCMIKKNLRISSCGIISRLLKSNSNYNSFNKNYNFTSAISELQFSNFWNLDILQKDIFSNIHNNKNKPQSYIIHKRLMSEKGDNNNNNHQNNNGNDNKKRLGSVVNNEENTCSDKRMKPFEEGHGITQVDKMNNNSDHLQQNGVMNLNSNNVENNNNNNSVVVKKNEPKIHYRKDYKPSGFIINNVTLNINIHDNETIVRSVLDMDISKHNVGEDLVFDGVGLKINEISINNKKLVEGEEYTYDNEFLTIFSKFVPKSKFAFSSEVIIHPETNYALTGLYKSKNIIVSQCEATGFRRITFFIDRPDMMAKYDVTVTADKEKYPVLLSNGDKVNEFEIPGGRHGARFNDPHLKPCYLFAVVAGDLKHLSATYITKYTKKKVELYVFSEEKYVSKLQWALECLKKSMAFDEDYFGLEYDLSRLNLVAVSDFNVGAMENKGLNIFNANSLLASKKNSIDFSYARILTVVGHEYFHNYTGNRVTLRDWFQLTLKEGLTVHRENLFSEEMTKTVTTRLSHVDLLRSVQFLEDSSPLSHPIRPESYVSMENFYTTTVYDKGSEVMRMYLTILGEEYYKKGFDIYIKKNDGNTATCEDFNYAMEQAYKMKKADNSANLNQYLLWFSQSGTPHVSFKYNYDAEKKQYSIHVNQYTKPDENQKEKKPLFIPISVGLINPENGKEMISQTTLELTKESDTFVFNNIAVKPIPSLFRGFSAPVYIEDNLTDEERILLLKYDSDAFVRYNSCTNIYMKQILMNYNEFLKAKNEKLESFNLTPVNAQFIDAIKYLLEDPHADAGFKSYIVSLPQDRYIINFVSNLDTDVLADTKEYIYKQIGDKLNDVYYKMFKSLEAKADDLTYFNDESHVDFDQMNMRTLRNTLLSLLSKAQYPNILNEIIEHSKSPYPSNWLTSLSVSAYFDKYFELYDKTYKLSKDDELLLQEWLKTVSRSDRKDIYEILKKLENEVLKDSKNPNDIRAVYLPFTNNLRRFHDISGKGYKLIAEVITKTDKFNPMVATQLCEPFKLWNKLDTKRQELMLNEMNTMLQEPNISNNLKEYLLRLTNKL
Kind of experiment: malaria alanyl aminopeptidase activity blockers – biochemical, fluorogenic H-Leu-NHMec substrate, 1536-well (AID 1445). Also on record: species or system Plasmodium falciparum 3D7, 3D7.

The nature of experiment [8]: reduction of Shn3 3'UTR-driven luciferase in osteoblasts – cell-based, Clone20 osteoblasts, firefly luciferase, cherry-picked, dose response (AID 624132).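 Note: firefly luciferase luminescence from reporter carrying the Shn3 3'UTR in osteoblasts.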 Type of experiment: functional.
Experiment [9] can be described thus: P. falciparum Dd2 growth inhibitors, dose response, SYBR Green, cherry-picked samples (AID 1159567). Type of experiment: functional, cell-based.

Activity calls are given as the source filed them. Cut-off read from the data, not from the text of the source, for most assays here: actives have a measured EC50 and inactives only a lower limit.

For 23 molecules, EC50, AC50 and IC50 results are on record in ChEMBL document CHEMBL1201862, “PubChem BioAssay data set” (2004).

For orientation: EC50 means the midpoint of the concentration-response curve. The term AC50 denotes the concentration at which the activity in the assay is half-maximal. As usually defined, the IC50 is the concentration that inhibits the measured activity by half.

Chain of Luciferin 4-monooxygenase (P08659 whole entry): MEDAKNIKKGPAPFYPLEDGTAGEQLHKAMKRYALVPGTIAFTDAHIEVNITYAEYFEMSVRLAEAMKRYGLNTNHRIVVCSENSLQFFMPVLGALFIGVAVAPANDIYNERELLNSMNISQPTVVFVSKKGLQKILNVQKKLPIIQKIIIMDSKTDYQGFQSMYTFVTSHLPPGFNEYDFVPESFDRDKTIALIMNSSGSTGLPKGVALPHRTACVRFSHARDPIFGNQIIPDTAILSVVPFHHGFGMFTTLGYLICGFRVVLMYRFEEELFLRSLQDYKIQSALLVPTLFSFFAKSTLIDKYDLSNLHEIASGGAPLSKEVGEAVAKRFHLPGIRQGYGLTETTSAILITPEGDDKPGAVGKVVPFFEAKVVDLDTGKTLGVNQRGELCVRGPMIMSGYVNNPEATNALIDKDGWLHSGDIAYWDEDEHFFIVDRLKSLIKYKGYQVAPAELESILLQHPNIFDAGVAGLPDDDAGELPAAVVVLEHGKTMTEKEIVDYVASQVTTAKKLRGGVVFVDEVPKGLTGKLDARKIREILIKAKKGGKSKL

In the case of `CSc1nnc(N2C(=O)C(O)=C(C(=O)c3ccco3)C2c2ccc(F)cc2)s1` (stereo unspecified), the EC50 was 82.8 µM (active) in experiment [1], > 112 µM (not active) in experiment [2], > 112 µM (not active) in experiment [3] and > 150 µM (not active) in [4].
As to `N=c1c(C(=O)NCC2CCCO2)cc2c(=O)n3ccccc3nc2n1Cc1ccccc1Cl` (stereo unspecified), the EC50 is 195 µM (active) in [1] and 104 µM (active) in experiment [4].
Consider `Cc1ccc(N/C=C2/Sc3ccccc3NC2=O)cc1`, for which the EC50 in experiment [5] was > 30 µM (not active); in experiment [1] it was > 300 µM (inconclusive); in experiment [4] it was > 300 µM (not active); in experiment [6] it was 0.806 µM (active).
Regarding `COC(=O)CC1=NN(c2ccc(OC)cc2)C(=O)C1`, the 50% effective concentration (EC50) on Protein RecA is 13.1 µM (active). Moreover, the AC50 in experiment [7] was 54.9 µM (active).
In the case of `COCCCNC(=O)C(C#N)c1nc2ccccc2nc1N1CCCC1` (stereo unspecified), the results for the EC50 in experiment [1] and in experiment [4] were > 300 µM (inconclusive) and 23.8 µM (active), respectively.
Consider `CCc1nnc(NS(=O)(=O)c2ccc(NC(=S)NC(=O)c3cccs3)cc2)s1`, for which the IC50 on Aminopeptidase N is 35.4 µM (active).
For the molecule `COc1ccc(C2C(C#N)=C(N)OC3=C2C(=O)CC(C)C3)c(OC)c1OC` (stereo unspecified), the EC50 in [1] and in experiment [4] was > 300 µM (not active) in each case.
As to `CCOC(=O)Cc1n[nH]c2c1C(c1cc(OC)ccc1OC)C(C#N)=C(N)O2` (stereo unspecified), on Protein RecA, the EC50 is 13.3 µM (active). For the same molecule, in [7], the AC50 is 73.9 µM (active).
For `O=[N+]([O-])c1c(O)nc(O)nc1/C=C/c1cccnc1` the same measures were > 380 µM (inactive) and > 380 µM (inactive).
`O=C1NC(=O)N(c2ccccc2)C(=O)/C1=C\NN1C(=O)c2cccc3cccc(c23)C1=O`: the concentration giving a half-maximal response (EC50) in experiment [1] is 72 µM (active); in [4] it was > 300 µM (not active).
Consider `O=c1oc2c(CN3CCOCC3)c(O)ccc2c2c1CCCC2`, for which the IC50 at Aminopeptidase N was 23.7 µM (active).
For `NC(=O)c1sc2nnc(-c3ccccc3)c(-c3ccccc3)c2c1N`, the EC50 in experiment [1] and in experiment [4] was > 300 µM (not active) throughout.
With `CCOC(=O)Cn1c(S(=O)(=O)Cc2ccccc2Cl)nc(-c2ccccc2)c1-c1ccccc1`, the AC50 in experiment [8] is 9.29 µM (active).
With `CCCCS/C(=C(/C#N)C(N)=O)c1cc2c([nH]1)CCCC2`, the half-maximal effective concentration (EC50) at Protein RecA is 15.6 µM (active). For the same molecule, the AC50 in experiment [7] is > 380 µM (inactive).
For the molecule `Cc1ccc(/C=C/C(=O)c2ccc(N3CCOCC3)cc2)s1`, the EC50 in [1] and in [4] was > 300 µM (not active) each time.
On to `Cc1nn(-c2ccccc2)c2c1C(c1ccccc1)C(C#N)=C(N)O2` (stereo unspecified), for which the EC50 at Protein RecA was 9.07 µM (active). The AC50 in experiment [7] was 16.8 µM (active).
Regarding `CN(C)c1oc(-c2cccs2)nc1C#N`, the IC50 at Aminopeptidase N is 104 µM (active).
Turning to `Cc1ccc(/C=N/NC(=O)c2nnn(-c3nonc3N)c2-c2cccs2)cc1`, the EC50 in experiment [1] and in experiment [4] was > 300 µM (not active) each time.
On to `COc1cc(CN2[C@@H]3CNC[C@H]2[C@@H]3c2ccc(-c3ccccc3)cc2)cc(OC)c1`, for which, in experiment [9], the AC50 was 6.99 µM (active).
The same measure, in the same setting: then `O=C1CN(S(=O)(=O)c2ccccc2)C[C@@H]2[C@H](c3ccc(C#CCc4ccccc4)cc3)[C@@H](CO)N12`, with 4.23 µM (active); and `C[C@H]1CN([C@@H](C)CO)S(=O)(=O)c2ccc(C#Cc3ccccc3)cc2O[C@H]1CN(C)C(=O)C1CC1`, with 3.95 µM (active).
Turning to `O=C(C[C@@H]1CC[C@@H]2[C@H](COC[C@@H](O)CN2S(=O)(=O)c2ccccc2)O1)NCc1ccc(-c2ccccc2)cc1`, the AC50 in experiment [9] is 6.32 µM (active).
On the same count and under the same terms, the same measure for `CO[C@@H]1CN(C)C(=O)c2cc(NC(=O)Nc3cccc(Cl)c3)ccc2OC[C@H](C)NC[C@H]1C`: 6.78 µM (active).
